ChEMBL document CHEMBL4507267 (2021)

Experiments:
[1] = tested on: Tyrosine-protein kinase ABL1 (Homo sapiens), P00519 [M351T]; conditions: Compound concentration 1000.0 nM
[2] = biological target: RAC-alpha serine/threonine-protein kinase (Homo sapiens) (UniProt P31749); conditions: Compound concentration 1000.0 nM
[3] = biological target: 5'-AMP-activated protein kinase catalytic subunit alpha-2 (Homo sapiens) (UniProt P54646); conditions: Compound concentration 1000.0 nM
[4] = biological target: Aurora kinase A (Homo sapiens) (UniProt O14965); conditions: Compound concentration 1000.0 nM
[5] = biological target: Cyclin-dependent kinase 11A (Homo sapiens) (UniProt Q9UQ88); conditions: Compound concentration 1000.0 nM
[6] = biological target: Cyclin-dependent kinase 8 (Homo sapiens) (UniProt P49336); conditions: Compound concentration 1000.0 nM
[7] = biological target: Dual specificity protein kinase CLK3 (Homo sapiens) (UniProt P49761); conditions: Compound concentration 1000.0 nM
[8] = biological target: Casein kinase I isoform alpha (Homo sapiens) (UniProt P48729); conditions: Compound concentration 1000.0 nM
[9] = biological target: Death-associated protein kinase 3 (Homo sapiens) (UniProt O43293); conditions: Compound concentration 1000.0 nM
[10] = biological target: Serine/threonine-protein kinase DCLK1 (Homo sapiens) (UniProt O15075); conditions: Compound concentration 1000.0 nM
[11] = tested on: Epidermal growth factor receptor (Homo sapiens), P00533 [UNDEFINED MUTATION]; conditions: Compound concentration 1000.0 nM
[12] = tested on: Epidermal growth factor receptor (Homo sapiens), P00533 [T790M]; conditions: Compound concentration 1000.0 nM
[13] = biological target: Ephrin type-A receptor 7 (Homo sapiens) (UniProt Q15375); conditions: Compound concentration 1000.0 nM
[14] = biological target: Mitogen-activated protein kinase 3 (Homo sapiens) (UniProt P27361); conditions: Compound concentration 1000.0 nM
[15] = biological target: Mitogen-activated protein kinase 6 (Homo sapiens) (UniProt Q16659); conditions: Compound concentration 1000.0 nM
[16] = tested on: Receptor-type tyrosine-protein kinase FLT3 (Homo sapiens), P36888 [N841I]; conditions: Compound concentration 1000.0 nM
[17] = biological target: Serine/threonine-protein kinase ICK (Homo sapiens) (UniProt Q9UPZ9); conditions: Compound concentration 1000.0 nM
[18] = biological target: Interleukin-1 receptor-associated kinase 1 (Homo sapiens) (UniProt P51617); conditions: Compound concentration 1000.0 nM
[19] = biological target: Interleukin-1 receptor-associated kinase 4 (Homo sapiens) (UniProt Q9NWZ3); conditions: Compound concentration 1000.0 nM
[20] = biological target: Mast/stem cell growth factor receptor Kit (Homo sapiens) (UniProt P10721); conditions: Compound concentration 1000.0 nM
[21] = tested on: Mast/stem cell growth factor receptor Kit (Homo sapiens), P10721 [L576P]; conditions: Compound concentration 1000.0 nM
[22] = biological target: LIM domain kinase 1 (Homo sapiens) (UniProt P53667); conditions: Compound concentration 1000.0 nM
[23] = biological target: Mitogen-activated protein kinase kinase kinase 3 (Homo sapiens) (UniProt Q99759); conditions: Compound concentration 1000.0 nM
[24] = biological target: Maternal embryonic leucine zipper kinase (Homo sapiens) (UniProt Q14680); conditions: Compound concentration 1000.0 nM
[25] = biological target: Serine/threonine-protein kinase 24 (Homo sapiens) (UniProt Q9Y6E0); conditions: Compound concentration 1000.0 nM
[26] = biological target: Serine/threonine-protein kinase Nek10 (Homo sapiens) (UniProt Q6ZWH5); conditions: Compound concentration 1000.0 nM
[27] = biological target: Serine/threonine-protein kinase Nek4 (Homo sapiens) (UniProt P51957); conditions: Compound concentration 1000.0 nM
[28] = biological target: Serine/threonine-protein kinase Nek9 (Homo sapiens) (UniProt Q8TD19); conditions: Compound concentration 1000.0 nM
[29] = biological target: Mitogen-activated protein kinase 14 (Homo sapiens) (UniProt Q16539); conditions: Compound concentration 1000.0 nM
[30] = tested on: Phosphatidylinositol 4,5-bisphosphate 3-kinase catalytic subunit alpha isoform (Homo sapiens), P42336 [Q546K]; conditions: Compound concentration 1000.0 nM
[31] = biological target: cAMP-dependent protein kinase catalytic subunit alpha (Homo sapiens) (UniProt P17612); conditions: Compound concentration 1000.0 nM
[32] = biological target: cAMP-dependent protein kinase catalytic subunit beta (Homo sapiens) (UniProt P22694); conditions: Compound concentration 1000.0 nM
[33] = biological target: Serine/threonine-protein kinase PLK4 (Homo sapiens) (UniProt O00444); conditions: Compound concentration 1000.0 nM
[34] = biological target: Serine/threonine-protein kinase D1 (Homo sapiens) (UniProt Q15139); conditions: Compound concentration 1000.0 nM
[35] = biological target: Serine/threonine-protein kinase PRP4 homolog (Homo sapiens) (UniProt Q13523); conditions: Compound concentration 1000.0 nM
[36] = biological target: Serine/threonine-protein kinase 33 (Homo sapiens) (UniProt Q9BYT3); conditions: Compound concentration 1000.0 nM
[37] = biological target: Tyrosine-protein kinase SYK (Homo sapiens) (UniProt P43405); conditions: Compound concentration 1000.0 nM
[38] = biological target: Tyrosine-protein kinase Tec (Homo sapiens) (UniProt P42680); conditions: Compound concentration 1000.0 nM
[39] = biological target: TGF-beta receptor type-1 (Homo sapiens) (UniProt P36897); conditions: Compound concentration 1000.0 nM
[40] = biological target: Transient receptor potential cation channel subfamily M member 6 (Homo sapiens) (UniProt Q9BX84); conditions: Compound concentration 1000.0 nM
[41] = biological target: Vascular endothelial growth factor receptor 2 (Homo sapiens) (UniProt P35968); conditions: Compound concentration 1000.0 nM
[42] = biological target: Serine/threonine-protein kinase 32B (Homo sapiens) (UniProt Q9NY57); conditions: Compound concentration 1000.0 nM
[43] = biological target: 5-hydroxytryptamine receptor 3A (Homo sapiens) (UniProt P46098); conditions: Compound concentration 10.0 uM
[44] = biological target: 5-hydroxytryptamine receptor 6 (Homo sapiens) (UniProt P50406); conditions: Compound concentration 10.0 uM
[45] = biological target: Beta-1 adrenergic receptor (Homo sapiens) (UniProt P08588); conditions: Compound concentration 10.0 uM

Chain of Mitogen-activated protein kinase kinase kinase 3 (Homo sapiens) (Q99759 whole entry): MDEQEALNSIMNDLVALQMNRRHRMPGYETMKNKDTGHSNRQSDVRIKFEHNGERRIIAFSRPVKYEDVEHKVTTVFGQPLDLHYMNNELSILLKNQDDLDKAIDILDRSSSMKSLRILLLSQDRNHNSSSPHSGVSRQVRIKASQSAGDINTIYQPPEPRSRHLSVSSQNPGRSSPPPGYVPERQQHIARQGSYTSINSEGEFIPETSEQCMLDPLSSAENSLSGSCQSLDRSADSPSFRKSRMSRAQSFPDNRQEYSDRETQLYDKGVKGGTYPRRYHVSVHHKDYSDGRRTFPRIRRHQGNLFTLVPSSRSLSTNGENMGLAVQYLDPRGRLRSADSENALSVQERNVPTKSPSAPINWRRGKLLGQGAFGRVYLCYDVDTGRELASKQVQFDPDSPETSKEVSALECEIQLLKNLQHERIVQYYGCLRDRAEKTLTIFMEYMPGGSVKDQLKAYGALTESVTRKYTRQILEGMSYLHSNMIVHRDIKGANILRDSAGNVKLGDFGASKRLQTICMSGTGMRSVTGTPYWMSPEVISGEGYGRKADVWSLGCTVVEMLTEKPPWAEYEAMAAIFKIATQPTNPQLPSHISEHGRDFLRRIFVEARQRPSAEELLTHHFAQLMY
Chain of 5-hydroxytryptamine receptor 6 (Homo sapiens) (P50406 whole entry): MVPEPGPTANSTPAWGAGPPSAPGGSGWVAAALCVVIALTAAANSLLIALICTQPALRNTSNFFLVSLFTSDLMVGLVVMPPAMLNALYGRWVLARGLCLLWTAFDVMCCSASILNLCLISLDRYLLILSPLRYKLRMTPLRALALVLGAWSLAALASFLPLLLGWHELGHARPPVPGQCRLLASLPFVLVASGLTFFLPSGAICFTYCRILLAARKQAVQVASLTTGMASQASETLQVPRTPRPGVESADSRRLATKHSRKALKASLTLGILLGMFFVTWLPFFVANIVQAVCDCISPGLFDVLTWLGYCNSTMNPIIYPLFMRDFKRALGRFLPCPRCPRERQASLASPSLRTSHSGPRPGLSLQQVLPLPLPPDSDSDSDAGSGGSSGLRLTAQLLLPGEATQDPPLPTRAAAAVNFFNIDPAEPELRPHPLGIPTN
Chain of Cyclin-dependent kinase 8 (Homo sapiens) (P49336 whole entry): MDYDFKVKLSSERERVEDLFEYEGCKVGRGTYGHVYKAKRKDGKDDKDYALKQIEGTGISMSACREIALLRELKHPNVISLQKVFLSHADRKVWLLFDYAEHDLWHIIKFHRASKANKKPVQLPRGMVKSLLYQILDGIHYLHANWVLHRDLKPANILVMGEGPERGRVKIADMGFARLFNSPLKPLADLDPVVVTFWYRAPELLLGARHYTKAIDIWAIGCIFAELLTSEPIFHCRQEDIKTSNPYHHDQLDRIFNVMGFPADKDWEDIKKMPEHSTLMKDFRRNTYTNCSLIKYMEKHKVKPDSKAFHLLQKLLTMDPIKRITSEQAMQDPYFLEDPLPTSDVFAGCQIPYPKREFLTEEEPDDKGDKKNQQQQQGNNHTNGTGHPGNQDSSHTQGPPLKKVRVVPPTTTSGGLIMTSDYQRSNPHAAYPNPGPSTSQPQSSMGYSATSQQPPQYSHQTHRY
Chain of Maternal embryonic leucine zipper kinase (Homo sapiens) (Q14680 whole entry, looked up): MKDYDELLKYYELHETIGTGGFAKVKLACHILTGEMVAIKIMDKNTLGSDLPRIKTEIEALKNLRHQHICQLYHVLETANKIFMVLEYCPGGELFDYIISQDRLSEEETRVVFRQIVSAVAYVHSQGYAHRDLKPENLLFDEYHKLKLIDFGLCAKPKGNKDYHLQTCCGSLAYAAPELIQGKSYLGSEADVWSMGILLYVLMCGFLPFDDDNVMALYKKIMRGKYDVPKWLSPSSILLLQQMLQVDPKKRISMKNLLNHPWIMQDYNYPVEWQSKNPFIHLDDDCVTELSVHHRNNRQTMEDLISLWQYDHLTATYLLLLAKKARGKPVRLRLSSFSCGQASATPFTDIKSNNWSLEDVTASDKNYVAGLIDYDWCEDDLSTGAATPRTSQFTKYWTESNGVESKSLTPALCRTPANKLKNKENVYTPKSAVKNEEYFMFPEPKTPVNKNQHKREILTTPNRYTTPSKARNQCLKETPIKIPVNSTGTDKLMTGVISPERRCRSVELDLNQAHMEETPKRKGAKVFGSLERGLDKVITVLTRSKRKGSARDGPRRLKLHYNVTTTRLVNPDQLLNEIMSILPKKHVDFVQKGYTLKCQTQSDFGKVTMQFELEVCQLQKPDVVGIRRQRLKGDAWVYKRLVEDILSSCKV
Chain of TGF-beta receptor type-1 (Homo sapiens) (P36897 whole entry): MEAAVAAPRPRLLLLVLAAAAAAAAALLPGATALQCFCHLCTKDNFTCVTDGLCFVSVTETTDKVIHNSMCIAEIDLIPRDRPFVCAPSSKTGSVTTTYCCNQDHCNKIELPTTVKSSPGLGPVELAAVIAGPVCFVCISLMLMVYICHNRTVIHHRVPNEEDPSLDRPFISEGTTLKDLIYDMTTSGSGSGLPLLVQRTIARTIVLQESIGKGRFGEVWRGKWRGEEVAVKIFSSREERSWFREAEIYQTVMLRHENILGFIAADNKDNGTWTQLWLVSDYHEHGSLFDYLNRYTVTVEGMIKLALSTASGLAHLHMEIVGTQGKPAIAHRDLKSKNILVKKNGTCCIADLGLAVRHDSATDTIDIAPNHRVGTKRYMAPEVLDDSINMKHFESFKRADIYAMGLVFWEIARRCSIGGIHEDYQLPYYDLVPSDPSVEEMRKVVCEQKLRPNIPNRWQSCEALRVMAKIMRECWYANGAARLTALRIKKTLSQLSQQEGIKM
Chain of Serine/threonine-protein kinase DCLK1 (Homo sapiens) (O15075 whole entry): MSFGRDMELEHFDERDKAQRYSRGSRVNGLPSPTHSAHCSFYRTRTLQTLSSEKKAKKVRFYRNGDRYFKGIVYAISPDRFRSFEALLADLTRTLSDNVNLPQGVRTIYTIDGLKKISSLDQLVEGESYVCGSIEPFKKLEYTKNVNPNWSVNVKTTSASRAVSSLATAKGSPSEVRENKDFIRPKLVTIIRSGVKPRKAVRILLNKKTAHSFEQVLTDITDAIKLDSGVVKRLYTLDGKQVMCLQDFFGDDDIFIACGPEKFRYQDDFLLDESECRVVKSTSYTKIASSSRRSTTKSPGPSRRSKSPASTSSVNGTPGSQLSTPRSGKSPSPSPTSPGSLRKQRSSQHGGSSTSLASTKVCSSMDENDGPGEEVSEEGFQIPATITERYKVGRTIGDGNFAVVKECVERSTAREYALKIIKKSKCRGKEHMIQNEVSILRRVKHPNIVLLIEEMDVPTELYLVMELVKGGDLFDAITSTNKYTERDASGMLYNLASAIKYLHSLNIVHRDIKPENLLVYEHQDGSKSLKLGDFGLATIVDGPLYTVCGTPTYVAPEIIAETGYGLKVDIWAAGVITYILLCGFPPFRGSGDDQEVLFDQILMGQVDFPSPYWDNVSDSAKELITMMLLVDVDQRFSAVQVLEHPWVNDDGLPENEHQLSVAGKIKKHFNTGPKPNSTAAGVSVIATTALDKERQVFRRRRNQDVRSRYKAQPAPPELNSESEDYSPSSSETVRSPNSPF
Chain of Serine/threonine-protein kinase Nek9 (Homo sapiens) (Q8TD19 whole entry): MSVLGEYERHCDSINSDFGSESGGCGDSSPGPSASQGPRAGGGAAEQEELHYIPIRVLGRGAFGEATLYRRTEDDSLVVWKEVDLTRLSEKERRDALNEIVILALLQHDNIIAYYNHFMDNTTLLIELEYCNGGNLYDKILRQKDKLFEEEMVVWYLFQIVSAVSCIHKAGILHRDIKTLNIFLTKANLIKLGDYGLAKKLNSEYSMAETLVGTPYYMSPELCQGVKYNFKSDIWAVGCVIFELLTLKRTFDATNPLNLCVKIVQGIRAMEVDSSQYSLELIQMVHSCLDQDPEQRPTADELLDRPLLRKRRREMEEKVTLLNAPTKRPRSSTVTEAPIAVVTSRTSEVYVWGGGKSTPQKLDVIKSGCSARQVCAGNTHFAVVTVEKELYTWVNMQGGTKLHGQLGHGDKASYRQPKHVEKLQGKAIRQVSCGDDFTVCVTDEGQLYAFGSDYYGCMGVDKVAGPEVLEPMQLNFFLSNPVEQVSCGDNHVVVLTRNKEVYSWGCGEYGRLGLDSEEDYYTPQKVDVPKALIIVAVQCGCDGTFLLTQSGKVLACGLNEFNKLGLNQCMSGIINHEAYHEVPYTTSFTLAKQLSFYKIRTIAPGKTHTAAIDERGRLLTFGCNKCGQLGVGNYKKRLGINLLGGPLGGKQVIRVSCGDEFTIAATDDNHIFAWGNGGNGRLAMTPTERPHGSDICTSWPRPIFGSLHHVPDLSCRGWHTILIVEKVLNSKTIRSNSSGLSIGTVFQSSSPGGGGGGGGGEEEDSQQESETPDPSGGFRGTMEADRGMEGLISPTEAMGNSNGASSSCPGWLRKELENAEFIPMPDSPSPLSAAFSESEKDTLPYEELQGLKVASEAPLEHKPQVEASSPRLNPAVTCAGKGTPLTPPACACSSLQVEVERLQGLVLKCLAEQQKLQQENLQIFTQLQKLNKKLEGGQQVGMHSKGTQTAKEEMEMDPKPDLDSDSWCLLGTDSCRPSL
Chain of Mitogen-activated protein kinase 3 (Homo sapiens) (P27361 whole entry): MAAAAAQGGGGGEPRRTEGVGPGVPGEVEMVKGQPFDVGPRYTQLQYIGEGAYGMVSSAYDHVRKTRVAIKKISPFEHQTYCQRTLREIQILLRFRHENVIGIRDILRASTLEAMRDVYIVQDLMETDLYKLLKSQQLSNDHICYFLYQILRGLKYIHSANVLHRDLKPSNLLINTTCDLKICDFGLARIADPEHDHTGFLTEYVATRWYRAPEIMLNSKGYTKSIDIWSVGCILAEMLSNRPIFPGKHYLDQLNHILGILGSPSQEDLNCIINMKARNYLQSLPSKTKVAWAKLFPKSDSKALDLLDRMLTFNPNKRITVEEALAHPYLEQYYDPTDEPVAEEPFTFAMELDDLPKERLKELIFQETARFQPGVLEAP

Molecule `Cc1c(NC(=O)c2cc(C(N)=O)nc3cc(F)ccc23)c(C(F)(F)F)nn1Cc1ccc(C#N)cc1` [BAY-876] has a residual activity [1] of 87%, a residual activity [2] of 91% and a residual activity [3] of 100%. The residual activity [4] was 89%, the residual activity [5] was 100% and the residual activity [6] was 56%. For the same molecule, the residual activity [7] was 100%, the residual activity [8] was 72% and the residual activity [9] was 89%. It also gave a residual activity [10] of 85%, a residual activity [11] of 91% and a residual activity [12] of 100%. For the same molecule, the residual activity [13] was 86%, the residual activity [14] was 85% and the residual activity [15] was 88%. For the same molecule, the residual activity [16] was 53%, the residual activity [17] was 100% and the residual activity [18] was 70%. The residual activity [19] was 84%, the residual activity [20] was 95% and the residual activity [21] was 92%. It also gave a residual activity [22] of 78%, a residual activity [23] of 66% and a residual activity [24] of 90%. For the same molecule, the residual activity [25] was 78%, the residual activity [26] was 83% and the residual activity [27] was 92%. It also gave a residual activity [28] of 95%, a residual activity [29] of 91% and a residual activity [30] of 85%. The residual activity [31] was 78%, the residual activity [32] was 93% and the residual activity [33] was 100%. For the same molecule, the residual activity [34] was 100%, the residual activity [35] was 93% and the residual activity [36] was 80%. For the same molecule, the residual activity [37] was 95%, the residual activity [38] was 85% and the residual activity [39] was 80%. The residual activity [40] was 87%, the residual activity [41] was 80% and the residual activity [42] was 100%. It also gave an inhibition [43] of -7.03%, an inhibition [44] of -0.383% and an inhibition [45] of 28.5%.

`Cc1c(NC(=O)c2cc(C(N)=O)nc3cc(F)ccc23)c(C(F)(F)F)nn1Cc1ccc(C(C)(C)C)cc1` [BAY-588] was tested, and the residual activity [1] was 100%, the residual activity [2] was 93% and the residual activity [3] was 100%. The residual activity [4] was 100%, the residual activity [5] was 94% and the residual activity [6] was 100%. For the same molecule, the residual activity [7] was 100%, the residual activity [8] was 94% and the residual activity [9] was 76%. It also gave a residual activity [10] of 91%, a residual activity [11] of 100% and a residual activity [12] of 100%. The residual activity [13] was 100%, the residual activity [14] was 100% and the residual activity [15] was 79%. The residual activity [16] was 52%, the residual activity [17] was 61% and the residual activity [18] was 100%. It also gave a residual activity [19] of 100%, a residual activity [20] of 99% and a residual activity [21] of 95%. It also gave a residual activity [22] of 100%, a residual activity [23] of 100% and a residual activity [24] of 100%. The residual activity [25] was 100%, the residual activity [26] was 100% and the residual activity [27] was 100%. For the same molecule, the residual activity [28] was 100%, the residual activity [29] was 100% and the residual activity [30] was 32%. It also gave a residual activity [31] of 87%, a residual activity [32] of 100% and a residual activity [33] of 100%. The residual activity [34] was 100%, the residual activity [35] was 73% and the residual activity [36] was 96%. For the same molecule, the residual activity [37] was 90%, the residual activity [38] was 94% and the residual activity [39] was 91%. It also gave a residual activity [40] of 100%, a residual activity [41] of 100% and a residual activity [42] of 100%. It also gave an inhibition [43] of 7.59%, an inhibition [44] of -0.431% and an inhibition [45] of 21.2%.
